Among the data in patent US20240140931A1, “TRICYCLIC COMPOUNDS AND USES THEREOF” (HUTCHMED LIMITED, priority 2021, published 2024) are IC50 values, retold here.

The target of experiment [1] is Human full-length SHP2 recombinant protein (Homo sapiens (Human), UniProt Q06124). Nature of the experiment: Assay of full-length SHP2 phosphatase activity. The format is biochemical. The following applies: DiFMUP substrate, with activating peptide. As to the method:
Example 2 Assay of Full-Length SHP2 Phosphatase Activity
1. Reagents and Materials • Human full-length SHP2 recombinant protein: BPS Bioscience, Cat #79018; • SHP2 substrate DiFMUP (1 mM): BPS Bioscience, Cat #79769; • SHP2 activating peptide (100 μM): BPS Bioscience, Cat #79319-2; • DTT: Merck, Cat #DTT-RO; • 384-well plate: Corning, Cat #3575; • 96-well plate: Thermo Fisher Scientific, Cat #249952; • Instrument: EnVision 2104, PerkinElmer.
2. Preparation of Reaction Solutions
The test compound was dissolved in DMSO and diluted with DMSO to 100.0 μM, and the compound was further 3-fold diluted with DMSO to: 100.00, 33.33, 11.11, 3.70, 1.23, 0.41, 0.14 and 0.05 μM.
3. Experimental Steps • To the corresponding wells of the 384-well plate was added 2.5 μL of 4× test compound or 2.5 μL of 4% DMSO solution, and centrifugation was carried out at 1000 rpm for 30 seconds. • To the test compound well and positive control well was added 2.5 μL of 4× mixed solution of SHP2 enzyme/activating peptide while to the negative control well was added 2.5 μL of 1× enzymatic reaction buffer; centrifugation was carried out at 1000 rpm for 30 seconds and incubation was carried out at room temperature for 30 minutes. • To each well was added 5 μL of 2×DiFMUP substrate to initiate the enzymatic reaction, then the plate was transiently oscillated and centrifuged at 1000 rpm for 30 seconds, and the 384-well plate was sealed with a sealing membrane and incubated at 25° C. on a low-speed shaker (100 rpm) in the dark for 60 minutes. • The fluorescence value (relative fluorescence units, RFU) of each well was detected on EnVision2104 (excitation: 355 nm, emission: 460 nm).
wherein • the RFU of compound well refers to the fluorescence reading at 460 nm of the well containing the test compounds; • the RFU of negative control well refers to the fluorescence reading at 460 nm of the background well containing 1% DMSO and the enzymatic reaction buffer; • the RFU of positive control well refers to the fluorescence reading at 460 nm of the well containing 1% DMSO and the mixed solution of SHP2 enzyme/activating peptide.
(§1) IC50 values were calculated following formula 205: y=A+((B−A)/(1+((C/X)^D))), by using the XL-Fit 5.0 software.

Experiment [2] deals with pERK1/2 (Thr202/Tyr204) in Miapaca2 cells. Nature of the experiment: Assay of intracellular pERK1/2 (Thr202/Tyr204) phosphorylation. The note with it: pERK1/2 (Thr202/Tyr204) HTRF. It counts as cell-based. On the procedure:
Example 3 Assay of Intracellular pERK1/2 (Thr202/Tyr204) Phosphorylation
1. Reagents and Materials • pERK1/2 (Thr202/Tyr204) HTRF kit: Cisbio, Cat #64ERKPEH; • Cell line: Miapaca2, ATCC, CRL-1420; • OptiPlate™-384-well plate: PerkinElmer, Cat #6007299; • 96-well plate: Corning, Cat #353072; • Instrument: EnVision2104, PerkinElmer.
2. Preparation of Reaction Solutions • The test compound was dissolved in DMSO and diluted with DMSO to 600.0 μM, and the compound was further 3-fold diluted with DMSO to: 600.0, 200.0, 66.7, 22.2, 7.4, 2.5, 0.82 and 0.27 μM. Then 10 μL of the compound at different dilution concentrations was added to 190 μL of a DMEM medium to prepare a 10× test compound, wherein DMSO was at the concentration of 5% (DMSO was at the final concentration of 0.5%). • 1× cell lysis buffer: 4× cell lysis stock solution (provided by the kit) was diluted 4-fold with deionized water, and then 1% 100× blocking stock solution (provided by the kit) was added thereto. • pERK1/2 detection solution (prepared just before use): the pERK1/2 d2 antibody (provided by the kit) and pERK1/2 Cryptate antibody (provided by the kit) were diluted with the detection solution (provided by the kit) at a ratio of 1:1:38.
3. Experimental Steps • Miapaca2 cells were inoculated into a 96-well plate at a density of 10000 cells/well at 90 μL/well and cultured in a cell incubator at 5% CO2 and 37° C. overnight. • 10 μL of 10× test compound was added to the 90 μL cell culture 96-well plate; to the cell positive control well was added 10 μL of 5% DMSO culture solution; and the plate was cultured in a cell incubator at 5% CO2 and 37° C. for 2 hours. • The medium in the 96-well plate was removed; 50 μL of 1× cell lysis buffer was added to each well; the plate was placed in a microplate shaker; and lysis under shaking was carried out at 900 rpm at room temperature for 1 hour. • 16 μL of the lysis buffer in the 96-well plate was taken and transferred to a 384-well plate, and centrifugation was carried out at 1000 rpm for 30 seconds; then 4 μL of pERK1/2 detection solution was added to each well and centrifugation was carried out at 1000 rpm for 30 seconds; and the 384-well plate was sealed with a sealing membrane and incubated at 25° C. on a low-speed shaker (100 rpm) in the dark for 2 hours. • The fluorescence value (relative fluorescence units, RFU) of each well was detected on EnVision2104 (emission 1: 665 nm, emission 2: 615 nm).
wherein • the fluorescence ratio of compound well refers to the fluorescence ratio of the well containing the test compounds; • the fluorescence ratio of negative control well refers to the fluorescence ratio of the background containing the cell lysis buffer and no Miapaca2 cells; • the fluorescence ratio of positive control well refers to the fluorescence ratio of the well containing 0.5% DMSO and Miapaca2 cells.
as §1
(Time-resolved FRET reads energy transfer from a long-lived donor to a nearby acceptor.)

As a reminder, the IC50 is the concentration needed to halve the response being measured.

Bounds are passed on as bounds.

Chain of Human full-length SHP2 recombinant protein (Q06124 whole entry): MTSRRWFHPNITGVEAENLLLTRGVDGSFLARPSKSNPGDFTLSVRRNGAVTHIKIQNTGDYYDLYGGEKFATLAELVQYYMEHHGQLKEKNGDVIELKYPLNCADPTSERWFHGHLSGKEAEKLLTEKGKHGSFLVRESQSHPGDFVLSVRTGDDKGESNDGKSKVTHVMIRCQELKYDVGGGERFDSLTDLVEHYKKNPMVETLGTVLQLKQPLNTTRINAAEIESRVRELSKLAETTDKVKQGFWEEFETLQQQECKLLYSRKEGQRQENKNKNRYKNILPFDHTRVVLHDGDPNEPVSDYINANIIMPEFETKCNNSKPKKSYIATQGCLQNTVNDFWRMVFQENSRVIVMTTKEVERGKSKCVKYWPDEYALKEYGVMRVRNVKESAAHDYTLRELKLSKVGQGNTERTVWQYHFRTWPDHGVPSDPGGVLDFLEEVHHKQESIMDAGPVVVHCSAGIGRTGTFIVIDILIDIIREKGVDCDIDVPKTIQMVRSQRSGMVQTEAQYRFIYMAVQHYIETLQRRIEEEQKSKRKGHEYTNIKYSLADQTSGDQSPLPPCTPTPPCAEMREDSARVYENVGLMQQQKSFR

For the compound `C#Cc1ccc2c(c1)[C@@H](N)C1(CCN(c3nc(C)n(-c4cccc(Cl)c4Cl)c(=O)c3C)CC1)C2` (atropisomer, axis not shown) [Compound 49], the IC50 in experiment [1] worked out at 3 nM; in experiment [2] (2 hours), 18 nM.

With `COCC#Cc1ccc2c(c1)[C@@H](N)C1(CCN(c3nc(C)n(-c4cccc(Cl)c4Cl)c(=O)c3C)CC1)C2` [Compound 36], the IC50 was 6 nM in experiment [1] and 33 nM in experiment [2] (Homo sapiens, MIA PaCa-2, 2 h).

As to `Cc1c(N2CCC3(CC2)Cc2ccc(C#CCN(C)C)cc2[C@H]3N)nc(C)n(-c2cccc(Cl)c2Cl)c1=O` (atropisomer, axis not shown) [Compound 50], the results for the IC50 in experiment [1] and in experiment [2] (2 hours) were 15 nM and 318 nM, respectively.

As for `Nc1nccc(Sc2cnc(N3CCC4(CC3)Cc3ccc(C#CCO)cc3[C@H]4N)n3ccnc23)c1Cl` [Compound 76], the IC50 in experiment [1] worked out at 2 nM; in experiment [2] (Homo sapiens, MIA PaCa-2, 2 h), 4 nM.

With `C#Cc1ccc2c(c1)[C@@H](N)C1(CCN(c3cc(=O)n(-c4c(F)cccc4Cl)c(C)n3)CC1)C2` [Compound 68], the IC50 came out at 130 nM in experiment [1] and 510 nM in experiment [2] (Homo sapiens, MIA PaCa-2, 2 h).

In the case of `C#Cc1ccc2c(c1)[C@@H](N)C1(CCN(c3ncc(Sc4ccnc(N)c4Cl)c4nccn34)CC1)C2` [Compound 8], the IC50 in experiment [1] was 3 nM; in experiment [2] (Homo sapiens, MIA PaCa-2, 2 h) it was 8 nM.

Regarding `C#Cc1ccc2c(c1)[C@@H](N)C1(CCN(c3cc(=O)n(-c4ccc(F)c(Cl)c4Cl)c(C)n3)CC1)C2` (atropisomer, axis not shown) [Compound 109], the 50% inhibitory concentration (IC50) in experiment [1] was 118 nM; in experiment [2] (2 hours), 259 nM.

For the compound `CCNC(=O)C#Cc1ccc2c(c1)[C@@H](N)C1(CCN(c3ncc(N4CCCc5ncccc54)nc3C)CC1)C2` [Compound 258], the IC50 in experiment [1] came to 10 nM; in experiment [2] (Homo sapiens, MIA PaCa-2, 2 h) it was 188 nM.

As for `CC#Cc1ccc2c(c1)[C@@H](N)C1(CCN(c3cc(=O)n(-c4ccc(F)c(OC)c4Cl)c(C)n3)CC1)C2` (atropisomer, axis not shown) [Compound 208], the IC50 in experiment [1] is 58 nM; in experiment [2] (2 hours), 187 nM.

On to `CC#Cc1ccc2c(c1)[C@@H](N)C1(CCN(c3cnc(Sc4ccnc(N)n4)c(N)n3)CC1)C2` [Compound 134], for which the half-maximal inhibitory concentration (IC50) in experiment [1] was 1.4 nM; in experiment [2] (Homo sapiens, MIA PaCa-2, 2 h) it was 5 nM.

In the case of `CC#Cc1ccc2c(c1)[C@@H](N)C1(CCN(c3cnc(Sc4ccnc(N)c4Cl)nn3)CC1)C2` [Compound 234], the IC50 in experiment [1] was 2.8 nM; in experiment [2] (Homo sapiens, MIA PaCa-2, 2 h), 153 nM.

Turning to `C#Cc1ccc2c(c1)[C@@H](N)C1(CCN(c3cc(=O)n(-c4cccc(OC)c4Cl)c(C)n3)CC1)C2` [Compound 90], the IC50 was found to be 1.1 nM in experiment [1] and 53 nM in experiment [2] (2 hours).

On to `CC#Cc1ccc2c(c1)[C@@H](N)C1(CCN(c3cc(=O)n(-c4ccc(F)c(F)c4Cl)c(C)n3)CC1)C2` (atropisomer, axis not shown) [Compound 218], for which the half-inhibitory concentration (IC50) in experiment [1] worked out at 104 nM; in experiment [2] (2 hours) it was 944 nM.

On to `C#Cc1ccc2c(c1)[C@@H](N)C1(CCN(c3cc(=O)n(-c4cccc(Cl)c4)c(C)n3)CC1)C2` [Compound 17], for which the IC50 is 18 nM in experiment [1] and 203 nM in experiment [2] (Homo sapiens, MIA PaCa-2, 2 h).

Turning to `C#Cc1ccc2c(c1)[C@@H](N)C1(CCN(c3cc(=O)n(-c4cccc(Cl)c4F)c(C)n3)CC1)C2` (atropisomer, axis not shown) [Compound 65], the IC50 came out at 2 nM in experiment [1] and 60 nM in experiment [2] (2 hours).

In the case of `NC(=O)C#Cc1ccc2c(c1)[C@@H](N)C1(CCN(c3cnc(Sc4ccnc(N)c4Cl)c(N)n3)CC1)C2` [Compound 129], the IC50 is 0.6 nM in experiment [1] and 3 nM in experiment [2] (Homo sapiens, MIA PaCa-2, 2 h).

As for `C#Cc1ccc2c(c1)[C@@H](N)C1(CCN(c3cc(=O)n(-c4ccccc4Cl)c(C)n3)CC1)C2` (single isomer, unassigned) [Compound 57], the values for the concentration for half-maximal inhibition (IC50) in experiment [1] and in experiment [2] (2 hours) were 28 nM and 526 nM, respectively.

On to `C#Cc1ccc2c(c1)[C@@H](N)C1(CCN(c3cc(=O)n(-c4cccc(Cl)c4Cl)c(C)n3)CC1)O2` [Compound 47], for which the IC50 amounted to 11 nM in experiment [1] and 115 nM in experiment [2] (Homo sapiens, MIA PaCa-2, 2 h).

In the case of `CC#Cc1ccc2c(c1)[C@@H](N)C1(CCN(c3cnc(Sc4ccnc(N)c4Cl)c(N)n3)CC1)C2` [Compound 131], the IC50 in experiment [1] is 3 nM; in experiment [2] (Homo sapiens, MIA PaCa-2, 2 h), 4 nM.

Consider `C#Cc1ccc2c(c1)[C@@H](N)C1(CCN(c3cc(=O)n(-c4ccc(F)c(F)c4)c(C)n3)CC1)C2` [Compound 15], for which the IC50 worked out at 8 nM in experiment [1] and 87 nM in experiment [2] (Homo sapiens, MIA PaCa-2, 2 h).

As to `Cc1nc(N2CCC3(CC2)Cc2ccc(C#CCN(C)C)cc2[C@H]3N)n2ccnc2c1Sc1ccnc(N)c1Cl` [Compound 75], the IC50 in experiment [1] stood at 2 nM; in experiment [2] (Homo sapiens, MIA PaCa-2, 2 h), 46 nM.

As to `C#Cc1ccc2c(c1)[C@@H](N)C1(CCN(c3cc(=O)n(-c4ccc(OCC)c(Cl)c4)c(C)n3)CC1)C2` [Compound 46], the IC50 turned out to be 96 nM in experiment [1] and 648 nM in experiment [2] (Homo sapiens, MIA PaCa-2, 2 h).

`COCC#Cc1ccc2c(c1)[C@@H](N)C1(CCN(c3cc(=O)n(-c4ccc(F)c(OC)c4Cl)c(C)n3)CC1)C2` (atropisomer, axis not shown) [Compound 164]: the results for the IC50 in experiment [1] and in experiment [2] (2 hours) were 42 nM and 154 nM, respectively.

With `COCC#Cc1ccc2c(c1)[C@@H](N)C1(CCN(c3nc(C)c(Sc4ccnc(N)n4)c4nccn34)CC1)C2` [Compound 117], the IC50 in experiment [1] turned out to be 2 nM; in experiment [2] (Homo sapiens, MIA PaCa-2, 2 h), 24 nM.

In the case of `C#Cc1ccc2c(c1)CC1(CCN(c3ncc(-c4cn(C)c5ncccc45)c4nccn34)CC1)[C@@H]2N` [Compound 6], the IC50 in experiment [1] is 420 nM; in experiment [2] (Homo sapiens, MIA PaCa-2, 2 h) it was more than 3000 nM.

`C#Cc1ccc2c(c1)[C@@H](N)C1(CCN(c3cc(=O)n(-c4ccc(C#N)c(O)c4F)c(C)n3)CC1)C2` [Compound 185]: the IC50 in experiment [1] was 14 nM; in experiment [2] (Homo sapiens, MIA PaCa-2, 2 h), more than 1000 nM.

As for `C#Cc1ccc2c(c1)[C@@H](N)C1(CCN(c3cc(=O)n(-c4cc(OC)ccc4Cl)c(C)n3)CC1)C2` [Compound 44], the IC50 in experiment [1] came to 60 nM; in experiment [2] (Homo sapiens, MIA PaCa-2, 2 h) it was 415 nM.

On to `COCC#Cc1ccc2c(c1)[C@@H](N)C1(CCN(c3cc(=O)n(-c4cccc(OC)c4Cl)c(C)n3)CC1)C2` [Compound 104], for which the IC50 came to 4 nM in experiment [1] and 40 nM in experiment [2] (Homo sapiens, MIA PaCa-2, 2 h).

`C#Cc1ccc2c(c1)[C@@H](N)C1(CCN(c3cc(=O)n(-c4cccc(Cl)c4Cl)c(C)n3)CC1)C2` [Compound 64]: the IC50 in experiment [1] was determined as 184 nM; in experiment [2] (Homo sapiens, MIA PaCa-2, 2 h), 891 nM.
